Where two headings read alike, the source gives them in different places.
Legend:
forced-swimming mice = experiment: In vivo pharmacodynamic test in the forced swimming model in mice; settings: ICR mice; for Mean (immobility, %): 100*floating time/240 s; for Immobility time during the latter four minutes compared with that of the model group: forced swimming
Protocol: The antidepressant effect of the compound was evaluated by the forced swimming model in mice.
Male ICR mice (25-35 g) were adapted in the test environment for 3 days before the forced swimming test.
According to the test design, the mice were randomly grouped on the day before the test according to body weight, with 12 mice in each group. Before the test, the compounds of each example were administered intragastrically according to the Tmax thereof in the brain in mice pharmacokinetic test as follows: • 1) Model group (0.5% CMC-Na-1% Tween 80 solution, p.o., 10 mL/kg); • 2) Compounds of Example 2, Example 3, Example 5, Example 6, Example 9, Examples 59-63, Examples 71-73, Example 103, Example 135, Example 137, Example 145 and Example 146 (10 mg/kg, p.o., 10 mL/kg); Example 13 and Example 74 (5 mg/kg, p.o., 5 mL/kg).
When being administered, the compounds of each example were suspended in 0.5% CMC-Na+1% Tween 80 solution to the desired concentration.
0.5-1 hour after administration, ICR mice were placed in a forced swimming device (transparent glass drum (water depth 18 cm, water temperature 25-26° C.), one mouse per tank) and forced to swim for 6 minutes. The forced swimming device recorded the floating time of the ICR mice during the entire 6 minutes, and the data of the latter four minutes were used for data analysis. The mice were taken out immediately after the swimming test, wiped dry and put back in their original cages.
Note: The criterion for determining the immobility time is that the mouse stops struggling in water and floats, and there are only slight limb movements to keep the head floating on the water.
3.4 Data Analysis Floating time percentage=100*floating time/240 s.

[1] = Pharmacokinetic assay in Balb/c mice (plasma and brain tissue); type: in vivo; settings: mouse, po, 5 mg/kg p.o., male Balb/c mice; for AUC(0-t): read-out: Area under curve AUC0-t; for AUC(0-inf): read-out: Area under curve AUC0-∞; for half-life: read-out: Half-life t1/2 (converted); for MRT: read-out: Mean residence time MRT; for Tmax: read-out: Peak time tmax; for Cmax: read-out: Plasma concentration Cmax
Summary of the method: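 Compound levels in plasma and brain were measured by LC/MS/MS with an internal standard after protein precipitation with acetonitrile. Samples came from overnight-fasted male Balb/c mice given 5 mg/kg p.o., with cardiac blood drawn at 0–24 h. Pharmacokinetic parameters were then calculated.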

Row | SMILES | Mean (immobility, %) (forced-swimming mice; dose 10 mpk p.o.) [%] | AUC(0-t) ([1]; brain tissue) [ng·h/mL] | AUC(0-inf) ([1]; brain tissue) [ng·h/mL] | half-life ([1]; brain tissue) [h] | MRT ([1]; brain tissue) [h] | Tmax ([1]; brain tissue) [h] | Cmax ([1]; brain tissue) [ng/mL] | AUC(0-t) ([1]; plasma) [ng·h/mL] | AUC(0-inf) ([1]; plasma) [ng·h/mL] | half-life ([1]; plasma) [h] | MRT ([1]; plasma) [h] | Tmax ([1]; plasma) [h] | Cmax ([1]; plasma) [ng/mL] | Mean (immobility, s) (forced-swimming mice; dose 10 mpk p.o., latter four minutes of 6 min swim) [s] | Immobility time during the latter four minutes compared with that of the model group (forced-swimming mice) | Mean (immobility, %) (forced-swimming mice; dose 5 mpk p.o.) [%]
1 | C[C@@]1(O)CC[C@H]2[C@H](CC[C@@H]3[C@@H]2CC[C@@]2(C)[C@H]3[C@@H]3C[C@@H]3[C@@H]2C(=O)Cn2cc(C#N)cn2)C1 [Example 2, 1-(2-((2R,4aS,4bR,6aS,7S,7aS,8aR,8bR,8cR,10aR)-2-hydroxy-2,6a-dimethyloctadecahydrocyclopropa[4,5]cyclopenta[1,2-a]phenanthren-7-yl)-2-oxoethyl)-1H-pyrazole-4-carbonitrile] | 54.26 | 840 | 913 | 2.84 | 2.39 | 0.5 | 637 | 1360 | 1370 | 0.54 | 1.21 | 0.5 | 1100 | – | – | –
2 | C[C@@]1(O)CC[C@H]2[C@H](CC[C@@H]3[C@@H]2CC[C@@]2(C)[C@H]3[C@@H]3C[C@@H]3[C@@H]2C(=O)Cn2ccc(C#N)n2)C1 [Example 3, 1-(2-((2R,4aS,4bR,6aS,7S,7aS,8aR,8bR,8cR,10aR)-2-hydroxy-2,6a-dimethyloctadecahydrocyclopropa[4,5]cyclopenta[1,2-a]phenanthren-7-yl)-2-oxoethyl)-1H-pyrazole-3-carbonitrile] | 28.50 | 719 | 722 | 0.5 | 1.1 | 0.5 | 690 | 570 | 574 | 0.5 | 1.01 | 0.5 | 673 | 68.39 | significantly different | –
3 | C[C@@]1(O)CC[C@H]2[C@H](CC[C@@H]3[C@@H]2CC[C@@]2(C)[C@H]3[C@@H]3C[C@@H]3[C@@H]2C(=O)Cn2cc(C(F)(F)F)cn2)C1 [Example 5, 1-((2R,4aS,4bR,6aS,7S,7aS,8aR,8bR,8cR,10aR)-2-Hydroxy-2,6a-dimethyloctadecahydrocyclopropa[4,5]cyclopenta[1,2-a]phenanthren-7-yl)-2-(4-(trifluoromethyl)-1H-pyrazol-1-yl)ethan-1-one] | 59.93 | 2300 | 3070 | 4.72 | 5.53 | 0.5 | 1410 | 1240 | 1250 | 5.12 | 4.8 | 0.5 | 461 | – | – | –
4 | C[C@@H]1C[C@H](C(=O)Cn2cc(C#N)cn2)[C@@]2(C)CC[C@H]3[C@@H](CC[C@@H]4C[C@](C)(O)CC[C@@H]43)[C@H]12 [Example 13, 1-(2-((3R,5R,8R,9R,10S,13S,14S,15R)-3-Hydroxy-3,13,15-trimethylhexadecahydro-1H-cyclopenta[a]phenanthren-17-yl)-2-oxoethyl)-1H-pyrazole-4-carbonitrile] | – | 4730 | 4740 | 2.5 | 3.9 | 1 | 1060 | 5060 | 5070 | 2.5 | 3.6 | 1 | 1210 | – | – | 57.60
5 | C[C@@H]1C[C@H](C(=O)Cn2ccc(C#N)n2)[C@@]2(C)CC[C@H]3[C@@H](CC[C@@H]4C[C@](C)(O)CC[C@@H]43)[C@H]12 [Example 60, 1-(2-((3R,5R,8R,9R,10S,13S,14S,15R,17S)-3-Hydroxy-3,13,15-trimethylhexadecahydro-1H-cyclopenta[a]phenanthren-17-yl)-2-oxoethyl)-1H-pyrazole-3-carbonitrile] | 35.30 | 2400 | 2500 | 2.37 | 2.35 | 1 | 998 | 1700 | 1770 | 1.64 | 1.43 | 0.5 | 720 | – | significantly different | –
6 | C[C@@]1(O)CC[C@H]2[C@H](CC[C@@H]3[C@@H]2CC[C@]2(C)C(C(=O)Cn4cc(C#N)cn4)C[C@@H](C4CC4)[C@@H]32)C1 (stereo partly drawn) [Example 71, 1-(2-((3R,5R,8R,9R,10S,13S,14S,15S)-15-Cyclopropyl-3-hydroxy-3,13-dimethylhexadecahydro-1H-cyclopenta[a]phenanthren-17-yl)-2-oxoethyl)-1H-pyrazole-4-carbonitrile] | 55.92 | 1130 | 1280 | 2 | 3.66 | 1 | 383 | 1580 | 1760 | 2.04 | 3.5 | 1 | 508 | – | – | –
7 | CC[C@@H]1C[C@H](C(=O)Cn2ccc(C#N)n2)[C@@]2(C)CC[C@H]3[C@@H](CC[C@@H]4C[C@](C)(O)CC[C@@H]43)[C@H]12 [Example 137, 1-(2-((3R,5R,8R,9R,10S,13S,14S,15R,17S)-15-Ethyl-3-hydroxy-3,13-dimethylhexadecahydro-1H-cyclopenta[a]phenanthren-17-yl)-2-oxoethyl)-1H-pyrazole-3-carbonitrile] | 36.92 | 2130 | 3160 | 6.02 | 7.58 | 1 | 613 | 2780 | 3790 | 3.85 | 5.88 | 1 | 763 | – | significantly different | –
8 | C[C@@]1(O)CC[C@H]2[C@H](CC[C@@H]3[C@@H]2CC[C@@]2(C)[C@H]3[C@H](C3CC3)C[C@@H]2C(=O)Cn2ccnn2)C1 [Example 145, 1-((3R,5R,8R,9R,10S,13S,14S,15S,17S)-15-Cyclopropyl-3-hydroxy-3,13-dimethylhexadecahydro-1H-cyclopenta[a]phenanthren-17-yl)-2-(1H-1,2,3-triazol-1-yl)ethan-1-one] | – | 4820 | 5270 | 2.09 | 3.4 | 1 | 1480 | 13400 | 13400 | 1.75 | 3.47 | 1 | 2990 | – | – | 30.72
9 | C[C@@]1(O)CC[C@H]2[C@H](CC[C@@H]3[C@@H]2CC[C@@]2(C)[C@H]3[C@H](C3CC3)C[C@@H]2C(=O)Cn2ncnn2)C1 [Example 146, 1-((3R,5R,8R,9R,10S,13S,14S,15S,17S)-15-Cyclopropyl-3-hydroxy-3,13-dimethylhexadecahydro-1H-cyclopenta[a]phenanthren-17-yl)-2-(2H-tetrazol-2-yl)ethan-1-one] | – | 8680 | 12500 | 4.66 | 6.73 | 1 | 1970 | 7790 | 8000 | 1.45 | 2.97 | 1 | 2090 | – | significantly different | 33.54

Reference: patent US12139508B2, “Steroid derivative regulators, method for preparing the same, and uses thereof” (JIANGSU HANSOH PHARMACEUTICAL GROUP CO., LTD., priority 2018, dated 2024)
